Data taken from US20030215817A1, “Modulation of gene expression in formation of fatty atherosclerotic lesions” (priority 2003, published 2003).
Where a name gives a salt, the structure may show the parent alone.

Experiments:
Type in all cases: in vivo, rabbit
[1] = test system: REC1_36 (digital address TTAG 155) mRNA; test: TOGA analysis, REC1_36
Procedure: (§1) To perform the studies, New Zealand male rabbits weighing 2.0-2.5 kg (Charles River, Calco, Italy) were used. The rabbits were divided into three groups and maintained in identical experimental conditions: (1) control group (n=15); rabbits fed a cholesterol-rich diet; (2) lercanidipine-treated group (n=15); rabbits fed a cholesterol-rich diet and also treated with lercanidipine (3 mg/kg/week); and (3) (R)-lercanidipine-treated group (n=5); rabbits fed a cholesterol-rich diet and also treated with the (R)-enantiomer of lercanidipine (3 mg/kg/week). After a 2 week period of subcutaneous, once a week, pretreatment with 3 mg/kg/week of lercanidipine or (R)-lercanidipine, the rabbits received a daily cholesterol supplement for up to 8 weeks or 2 weeks, respectively. In the following examples, use of the term “lercanidipine” refers to the racemic mixture of lercanidipine hydrochloride, whereas “(R)-lercanidipine” refers to the (R)-enantiomer of lercanidipine hydrochloride.
(§2) The mRNA from the above-described groups was isolated from aorta at different time points, resulting in the following mRNA samples: (1) Day 0 Control=no administered cholesterol, no lercanidipine; (2) Day 0+lercanidipine=no administered cholesterol, treatment with lercanipidine (2 weeks; 3 mg/kg/week); (3) Day 14 Control=cholesterol diet for two weeks, no lercanidipine; (4) Day 14+lercanidipine=cholesterol diet for two weeks, treatment with lercanidipine (four weeks; 3 mg/kg/week); (5) Week 8 Control=cholesterol diet for 8 weeks, no lercanidipine; and (6) Week 8+lercanidipine=cholesterol diet for 8 weeks, treatment with lercanidipine (10 weeks; 3 mg/kg/week). In addition, Day 14+(R)-lercanidipine mRNA samples were prepared from rabbits given a cholesterol diet for two weeks and treated with 3 mg/kg/week (R)-lercanidipine for four weeks.
(§3) Aorta mRNAs were prepared in the following manner. First, the aortas from each experimental group were retrieved and shredded using a polytron homogenizer. The samples were further homogenized using a teflon pestle, after which the cellular debris, nuclei, and blood cells were pelleted by centrifugation. The supernatants were extracted twice with phenol-chloroform-isoamyl alcohol and once with chloroform-isoamyl alcohol. RNA was then precipitated from the aqueous phase with ethanol. The poly A+ mRNA was prepared using standard methods of polyA selection known in the art (Schriber et al., J. Mol. Biol., 142:93-116 (1980)).
(§4) The isolated mRNA was analyzed using a method of simultaneous sequence-specific identification of mRNAs known as TOGA, described in U.S. Pat. No. 5,459,037 and U.S. Pat. No. 5,807,680, hereby incorporated herein by reference. In a preferred embodiment, the TOGA method further comprised an additional PCR step performed using a mixture of four 5′ PCR primers and cDNA templates prepared from a population of antisense cRNAs. A final PCR step that used a mixture of 256 5′ PCR primers produced PCR products that were cDNA fragments that corresponded to the 3′-region of the starting mRNA population. The produced PCR products were then identified by: (a) the initial 5′ sequence comprising the sequence remainder of the recognition site of the restriction endonuclease used to cut and isolate the 3′ region plus the sequence of the preferably four parsing bases immediately 3′ to the remainder of the recognition site, preferably the sequence of the entire fragment; and (b) the length of the fragment. These two parameters, sequence and fragment length, were used to compare the obtained PCR products to a database of known polynucleotide sequences. Since the length of the obtained PCR products includes known vector sequences at the 5′ and 3′ ends of the insert, the sequence of the insert provided in the sequence listing is shorter than the fragment length that forms part of the digital address.
The method yields Digital Sequence Tags (DSTs), that is, polynucleotides that are expressed sequence tags of the 3′ end of mRNAs. […]

[2] = test system: REC1_3 (MspI ACGG 162) mRNA; test: TOGA analysis, REC1_3
Procedure: as §1, §2, §3
as §4, with “These two parameters, sequence and fragment length, were used to compare the obtained PCR products to a database of known polynucleotide sequences. Since the length of the obtained PCR products includes known vector sequences at the 5′ and 3′ ends of the insert, the sequence of the insert provided in the sequence listing is shorter than the fragment length that forms part of the digital address.” left out

REC1_16 (TCGG 195) mRNA = test: TOGA analysis, REC1_16
Procedure: as §1, §2, §3
as §4, with “These two parameters, sequence and fragment length, were used to compare the obtained PCR products to a database of known polynucleotide sequences. Since the length of the obtained PCR products includes known vector sequences at the 5′ and 3′ ends of the insert, the sequence of the insert provided in the sequence listing is shorter than the fragment length that forms part of the digital address.” left out

[3] = test system: REC1_12 (GCCC 232) mRNA, alpha smooth muscle actin; test: TOGA analysis, REC1_12
Procedure: as §1, §2, §3
as §4, with “These two parameters, sequence and fragment length, were used to compare the obtained PCR products to a database of known polynucleotide sequences. Since the length of the obtained PCR products includes known vector sequences at the 5′ and 3′ ends of the insert, the sequence of the insert provided in the sequence listing is shorter than the fragment length that forms part of the digital address.” left out

REC1_5 (AGTG 184) mRNA = test: TOGA analysis, REC1_5
Procedure: as §1, §2, §3
as §4, with “These two parameters, sequence and fragment length, were used to compare the obtained PCR products to a database of known polynucleotide sequences. Since the length of the obtained PCR products includes known vector sequences at the 5′ and 3′ ends of the insert, the sequence of the insert provided in the sequence listing is shorter than the fragment length that forms part of the digital address.” left out

REC1_19 (TGTT 393) mRNA = test: TOGA analysis, REC1_19; conditions: REC1_19 TGTT 393, rabbit aorta
Procedure: as §1, §2, §3
as §4, with “These two parameters, sequence and fragment length, were used to compare the obtained PCR products to a database of known polynucleotide sequences. Since the length of the obtained PCR products includes known vector sequences at the 5′ and 3′ ends of the insert, the sequence of the insert provided in the sequence listing is shorter than the fragment length that forms part of the digital address.” left out

[4] = TOGA, hypercholesterolemic plus lercanidipine racemate, eight weeks, H2 (normocholesterolemic)=1.0

Q: Which “level of gene expression, 8 Week hypercholesterol + Lercanidipine” value ([1]; REC1_36 TTAG 155, rabbit aorta, cholesterol 8 weeks) does the source give for COC(=O)C1=C(C)NC(C)=C(C(=O)OC(C)(C)CN(C)CCC(c2ccccc2)c2ccccc2)C1c1cccc([N+](=O)[O-])c1 (racemic) [lercanidipine, lercanidipine hydrochloride] here?
A: 400

Q: What about the “level of gene expression, 14 Day hypercholesterol + Lercanidipine” value ([1]; REC1_36 TTAG 155, rabbit aorta, cholesterol 14 days) of the same compound?
A: 683

Q: And the “level of gene expression, Normal + Lercanidipine” value ([1]; REC1_36 TTAG 155, rabbit aorta, no cholesterol)?
A: 186

Q: And the “Relative Abundance Rec1_36, TOGA, F” value [1, 4]?
A: 0.5

Q: And the “level of gene expression of REC1_36 (TOGA)” value ([1]; aorta at day 14 of cholesterol administration, 3 mg/kg/week for 4 weeks)?
A: 683

Q: And the “level of gene expression of REC1_36 (TOGA)” value ([1]; aorta at week 8 of cholesterol administration, 3 mg/kg/week for 10 weeks)?
A: 400

Q: And the “level of gene expression (TOGA), 8 Week hypercholesterol + Lercanidipine” value ([2]; REC1_3, ACGG 162, rabbit aorta, 8 weeks cholesterol + lercanidipine)?
A: 65

Q: What about the “level of gene expression (TOGA), 14 Day hypercholesterol + Lercanidipine” value ([2]; REC1_3, ACGG 162, rabbit aorta, 14 days cholesterol + lercanidipine) of the same compound?
A: 68

Q: What about the “level of gene expression (TOGA), Normal + Lercanidipine” value (shortened to “level … (TOGA), Normal + Lercanidipine”) ([2]; REC1_3, ACGG 162, rabbit aorta, no cholesterol, lercanidipine) of the same compound?
A: 54

Q: What about the “Relative Abundance Rec1_3, TOGA, F” value [2, 4] of the same compound?
A: 0.8

Q: What about the “level of gene expression (TOGA), 8 Week hypercholesterol + Lercanidipine” value (REC1_16 (TCGG 195) mRNA; REC1_16 TCGG 195, rabbit aorta, 8 weeks cholesterol, lercanidipine) of the same compound?
A: 530

Q: What about the “level of gene expression (TOGA), 14 Day hypercholesterol + Lercanidipine” value (REC1_16 (TCGG 195) mRNA; REC1_16 TCGG 195, rabbit aorta, 14 days cholesterol, lercanidipine) of the same compound?
A: 1052

Q: And the “level … (TOGA), Normal + Lercanidipine” value (REC1_16 (TCGG 195) mRNA; REC1_16 TCGG 195, rabbit aorta, no cholesterol, lercanidipine)?
A: 2028

Q: What about the “Relative Abundance Rec1_16, TOGA, F” value (REC1_16 (TCGG 195) mRNA; [4]) of the same compound?
A: 0.2

Q: And the “level of gene expression, 8 Week hypercholesterol + Lercanidipine” value ([3]; REC1_12 GCCC 232, rabbit aorta, 8 weeks cholesterol)?
A: 622

Q: What about the “level of gene expression, 14 Day hypercholesterol + Lercanidipine” value ([3]; REC1_12 GCCC 232, rabbit aorta, 14 days cholesterol) of the same compound?
A: 5657

Q: And the “level of gene expression, Normal + Lercanidipine” value ([3]; REC1_12 GCCC 232, rabbit aorta, no cholesterol)?
A: 4929

Q: What about the “Relative Abundance Rec1_12, TOGA, F” value [3, 4] of the same compound?
A: 0.1

Q: And the “level of gene expression (TOGA), 8 Week hypercholesterol + Lercanidipine” value (REC1_5 (AGTG 184) mRNA; REC1_5, AGTG 184, rabbit aorta, 8 weeks cholesterol + lercanidipine)?
A: 188

Q: And the “level of gene expression (TOGA), 14 Day hypercholesterol + Lercanidipine” value (REC1_5 (AGTG 184) mRNA; REC1_5, AGTG 184, rabbit aorta, 14 days cholesterol + lercanidipine)?
A: 699

Q: And the “level … (TOGA), Normal + Lercanidipine” value (REC1_5 (AGTG 184) mRNA; REC1_5, AGTG 184, rabbit aorta, no cholesterol, lercanidipine)?
A: 1034

Q: And the “Relative Abundance Rec1_5, TOGA, F” value (REC1_5 (AGTG 184) mRNA; [4])?
A: 0.2

Q: And the “level of gene expression, 8 Week hypercholesterol + Lercanidipine” value (REC1_19 (TGTT 393) mRNA; cholesterol 8 weeks)?
A: 130

Q: And the “level of gene expression, 14 Day hypercholesterol + Lercanidipine” value (REC1_19 (TGTT 393) mRNA; cholesterol 14 days)?
A: 373

Q: And the “level of gene expression, Normal + Lercanidipine” value (REC1_19 (TGTT 393) mRNA; no cholesterol)?
A: 569
